Measurements as given in US8652467B2, “Dek protein compositions and methods of using the same” (The Regents of the University of Michigan, priority 2005, dated 2014).
Entries after “also recorded” stand apart in the source; their conditions may differ. Peptide text beside a SMILES is read from it. * marks the point of attachment. Cbz = O=C(OCc1ccccc1)*; CH2F = FC*

Key:
[1] = system: monocyte-derived macrophages (MDM); test: DEK secretion by serum-differentiated MDM, Western blot of supernatants; format: cell-based, human; settings: for amount of DEK found in culture supernatants: treatment of MDM with Golgi inhibitors
Description: MDM were prepared as described (See, e.g., Lane et al., J Immunol 163, 3653-61. (1999)). Briefly, heparinized venous blood was collected from healthy volunteers, and peripheral blood mononuclear cells (PBMC) were separated by Ficoll-Hypaque (Amersham Pharmacia Biotech AB, Uppsala, Sweden) density gradient centrifugation. MDM were purified by adherence to plastic for 2 h at 37° C. at a concentration of 5×10^5/ml. Adherent cells were consistently >90% monocytes (See, e.g., Lane et al., J Immunol 163, 3653-61. (1999)). […]
MDMs were maintained for 12 h in serum-free conditioned media with added dexamethasone, (0.5 μM or 1 μM) (Sigma St. Louis, Mo.), cyclosporin A (CsA, 1 μg/ml) (Sigma St. Louis, Mo.), carbonyl cyanide chlorophenyl hydrazone (CCCP) (10 μM) (Sigma St. Louis, Mo.), IL-8 (10 ng/ml) (R&D Systems, Minneapolis, Minn.) or TBB (See, e.g., Sarno et al., Pharmacol Ther 93, 159-68 (2002)) for 3 hours. Following 3 washes with PBS, serum-free media was added for 3 to 12 h before harvest. The viability of the cells incubated in serum-free medium with or without added drugs was >95% at 48 h as measured by MTT-based colorimetric assay (Boehringer Mannheim, Indianapolis, Ind.) and by LDH release as previously described (See, e.g., Punturieri et al., J Exp Med 192, 789-99. (2000)). Supernatants were collected and centrifuged for 20 min at 200×g to remove cell debris, then concentrated by a centrifugal filter device (Millipore) in the presence of a protease inhibitor cocktail (Boehringer Mannheim, Indianapolis, Ind.). Equal amounts of protein (20 μg) were loaded under reducing conditions and proteins were separated by 10% SDS-PAGE. The proteins were subsequently transferred to nitrocellulose and probed with mouse monoclonal anti-DEK or rabbit or goat polyclonal anti-DEK antibodies. The bound primary antibody was then detected with horseradish peroxidase-conjugated goat anti-mouse or anti-rabbit secondary antibody using the Super Signal West Pico system (Pierce Chemical Co, Rockford, Ill.).

[2] = system: Jurkat control and DEK-knockdown cells; test: DEK knock-down and DNA damage assay (Annexin-V); format: cell-based; settings: increasing doses, 24 hours
Description: Jurkat and HeLa S3 cells were transduced with either an empty lentiviral vector, or a vector containing two DEK-specific shRNAs. Control and DEK-knockdown Jurkat cells were exposed to increasing doses of UVC radiation. Twenty-four hours after irradiation, the percentage of apoptotic cells was determined by staining with Annexin-V and analysis by flow cytometry. HeLa S3 control and DEK-knockdown cells were similarly treated with increasing doses of UVC radiation. Cells were fixed, permeabilized, and stained with R-phycoerythrin labeled antibodies against the active form of caspase-3 twenty-four hours after irradiation. The percentage of cells expressing the active form of caspase-3 was determined by flow cytometry. Jurkat control and DEK-knockdown transduced cells were treated with either etoposide or cisplatin at increasing doses and 24 hours later the percentage of apoptotic cells was determined by staining with Annexin-V.

CXCR2 = target: T1, CXCR2 (Homo sapiens, UniProt P25025); settings: at low concentrations; cited from earlier work
T1 sequence (P25025 1-360): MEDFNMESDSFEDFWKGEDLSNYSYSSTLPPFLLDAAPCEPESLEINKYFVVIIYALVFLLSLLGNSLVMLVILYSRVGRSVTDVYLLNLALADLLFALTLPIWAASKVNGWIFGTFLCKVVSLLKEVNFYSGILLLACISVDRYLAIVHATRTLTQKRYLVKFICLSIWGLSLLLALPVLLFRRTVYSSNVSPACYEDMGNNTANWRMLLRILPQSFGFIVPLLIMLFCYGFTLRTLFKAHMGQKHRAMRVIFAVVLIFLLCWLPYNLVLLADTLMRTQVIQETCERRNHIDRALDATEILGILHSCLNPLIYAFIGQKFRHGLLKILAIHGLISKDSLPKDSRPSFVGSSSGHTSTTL

[3] = system: purified neutrophils (PMN); test: In vitro migration assay with purified neutrophils; format: cell-based, human; settings: SB225002 3 μM, 1 h
Description: Purified neutrophils (PMN) were treated with IL-8 (50 nM), the CXCR2 small molecule inhibitor SB225002 (3 μM), DEK (79 nM), IL-8 plus SB225002, or DEK plus SB225002 for 5 min at room temperature before and then during the migration assay. After 1 h, the number of fluorescently labeled migrating cells in the lower chamber was determined at 485 nM/535 nm wavelengths by Tecan GENios (Phenix, Austria). […] The results are expressed as the average fold increase in the number of cells migrating toward DEK compared to control wells containing medium only. White blood cells were isolated from venous blood from healthy donors as described above, and were depleted of monocytes by adherence to plastic for 2 h as described in the Cell Preparation section. […] The cells were washed and resuspended at 1×10^6 cells/ml in serum-free RPMI medium, and 1×10^5 labeled cells in 100 μl were added to the upper chamber of a 24-well Transwell chemotaxis insert with pore size of 3 μm or 5 μm (Corning, N.Y.). The lower chambers contained serum-free RPMI medium alone, recombinant DEK made in baculovirus, or a deletion mutant of the β form of human GLI-2 (See, e.g., Smith et al., J Virol 75, 2301-13 (2001)) produced in baculovirus as the control protein. After 30 min to 1 h, the number of fluorescently labeled migrating cells in the lower chamber was determined at […] wavelength using a Tecan GENios plate-reader (Phenix, Austria). The results were expressed as the average fold increase of the number of cells migrating toward lower chambers containing DEK divided by the number of cells migrating toward the control wells (medium alone). Forty ml of venous blood was collected from healthy volunteers into a 50 ml sterile syringe containing a mixture of 7 ml 0.25 M Citrate (0.17 M NA Citrate and 0.083 M Citric Acid) and 6% Dextran in PBS buffer. The blood was incubated for 30 min at room temperature and the upper phase was collected and further separated by Ficoll as described above. The neutrophil fraction was collected and washed with HBSS buffer and then pelleted again. […]

Jurkat cells = test: FAS-L induced apoptosis assay, DEK release into cytoplasm; format: cell-based; settings: Fas Ligand-mediated apoptosis, 3% FAS-L, 180 min
Description: Jurkat cells were washed with serum-free RPMI medium and incubated with 3% FAS-L without or with the broad-spectrum caspase inhibitor zVAD for 180 min. Cells were fractionated and the cytoplasm was separated by SDS-PAGE followed by immunoblotting with DEK specific antibodies (mouse monoclonal, BD Bioscience). As a loading control the same blot was reprobed with specific antibodies to beta-actin.

[4] = MDM in 10% human serum, TNF-α 5-100 ng/ml, IFN-γ 10-100 ng/ml, MCP-1 10-100 ng/ml, LPS 500-1000 ng/ml alone and with IFN-γ

In the case of “MCP-1: monocyte chemoattractant protein-1”, the “stimulation of DEK secretion” value [1, 4] is reported as “None of the inflammatory mediators listed above reproducibly stimulated DEK secretion”.

With “IL-8: recombinant IL-8, chemokine, neutrophil chemoattractant” the “stimulation of DEK secretion” value ([1]; IL-8 10 ng/ml, 12 h, day 12 MDM grown in 10% human serum) was “induces the secretion of DEK; also recorded: effective in stimulating vigorous secretion of DEK”.

For TNF-α, the “stimulation of DEK secretion” value [1, 4] was “None of the inflammatory mediators listed above reproducibly stimulated DEK secretion”.

With `N.N.[Cl][Pt][Cl]` [cisplatinum] the “sensitivity of DEK knock-down cells vs control cells (apoptosis)” value [2] was “consistently more sensitive”.

In the case of `Brc1c(Br)c(Br)c2[nH]nnc2c1Br` [TBB, 4,5,6,7-tetrabromobenzotriazole], the “inhibition of DEK secretion” value ([1]; 12-day MDM treated with TBB) is reported as “complete inhibition”, the “amount of extracellular DEK from TBB-treated cells vs untreated cells” value ([1]; 12 hours after removal of TBB) is reported as “significantly lower” and the “DEK in supernatants collected during the first 3 hours of incubation in serum free media” value ([1]; three-hour treatment of 8-day MDM with TBB (50 μM)) is reported as “absent”.

For `CC[C@@]1([C@@H]2O[C@@H]([C@H]3O[C@@](O)(CO)[C@H](C)C[C@@H]3C)C[C@@H]2C)CC[C@H]([C@]2(C)CC[C@]3(C[C@H](O)[C@@H](C)[C@@H]([C@@H](C)[C@@H](OC)[C@H](C)C(=O)O)O3)O2)O1` [monensin], the “amount of DEK found in culture supernatants” value [1] was “does not alter”.

With `C[C@H]1CCC/C=C/[C@@H]2C[C@H](O)C[C@H]2[C@H](O)/C=C/C(=O)O1` [Brefeldin A] the “amount of DEK found in culture supernatants” value [1] was “does not alter”.

In the case of `COc1cc([C@@H]2c3cc4c(cc3[C@@H](O[C@@H]3O[C@@H]5CO[C@@H](C)O[C@H]5[C@H](O)[C@H]3O)[C@H]3COC(=O)[C@H]23)OCO4)cc(OC)c1O` [etoposide], the “sensitivity of DEK knock-down cells vs control cells (apoptosis)” value [2] is reported as “consistently more sensitive”.

For `O=C(Nc1ccc([N+](=O)[O-])cc1O)Nc1ccccc1Br` [SB225002], the receptor selectivity (CXCR2) is given as “selective for CXCR2”, the “neutrophil migration toward DEK” value ([3]; DEK 79 nM) is given as “significantly blocked; also recorded: virtually complete inhibition” and the “neutrophil migration toward IL-8” value ([3]; IL-8 50 nM) is given as “significantly blocked; also recorded: virtually complete inhibition”.

In the case of lipopolysaccharide [LPS], the “stimulation of DEK secretion” value [1, 4] is reported as “None of the inflammatory mediators listed above reproducibly stimulated DEK secretion”.

In the case of `CC(NC(=O)C(NC(=O)OCc1ccccc1)C(C)C)C(=O)NC(CC(=O)O)C(=O)CF` (stereo not drawn) [ZVAD] (Cbz-Val-Ala-Asp-CH2F; configuration not given here), the “release of DEK into the cytoplasm” value (Jurkat cells) is reported as “blocks”.

In the case of tunicamycin, the DEK secretion ([1]; treatment of MDM with tunicamycin (inhibits N-glycosylation)) is reported as “not inhibited”.

B1: IFN-γ: inflammatory mediator (protein, UniProt P01579 24-161, looked up)
Interferon gamma: QDPYVKEAENLKKYFNAGHSDVADNGTLFLGILKNWKEESDRKIMQSQIVSFYFKLFKNFKDDQSIQKSVETIKEDMNVKFFNSNKKKRDDFEKLTNYSVTDLNVQRKAIHELIQVMAELSPAAKTGKRKRSQMLFRG
With B1 the “stimulation of DEK secretion” value [1, 4] was “None of the inflammatory mediators listed above reproducibly stimulated DEK secretion”.
